Laboratory results: PMC11249017 (Journal of Medicinal Chemistry, 2024)
pIC50: −log10 of the molar value. Entries after “also recorded” stand apart in the source; their conditions may differ. Marks after values point to notes of the source that are not given here.

Experiments:
[1] = molecular target: human G2A (Homo sapiens, UniProt Q9UNW8); conditions: compared with T-10418; 15 min after addition
Target sequence in this assay (P32121 whole entry partner, one chain of several): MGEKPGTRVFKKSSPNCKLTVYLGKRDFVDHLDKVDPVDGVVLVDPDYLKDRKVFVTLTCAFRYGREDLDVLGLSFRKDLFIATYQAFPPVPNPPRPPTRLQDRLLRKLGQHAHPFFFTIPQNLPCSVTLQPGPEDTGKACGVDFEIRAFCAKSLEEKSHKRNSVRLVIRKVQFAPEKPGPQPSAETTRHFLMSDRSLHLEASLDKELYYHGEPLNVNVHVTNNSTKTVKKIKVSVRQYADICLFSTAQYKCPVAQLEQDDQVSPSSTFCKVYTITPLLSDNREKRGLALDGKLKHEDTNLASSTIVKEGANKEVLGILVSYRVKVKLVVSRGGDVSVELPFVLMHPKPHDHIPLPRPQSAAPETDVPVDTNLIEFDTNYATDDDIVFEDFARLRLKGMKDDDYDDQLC

[2] = test system: Molm-13 cells; assay: IP-One assay in AML cells; type: cell-based; conditions: 90 minutes stimulation
[3] = test system: ML-2 cells; assay: IP-One assay in AML cells; type: cell-based; conditions: 90 minutes stimulation
[4] = test system: CHO-K1 cells overexpressing only GNA11 but not G2A; conditions: control cells without G2A; ONC compounds at ≥ 30 μM
[5] = test system: capsaicin-induced TRPV1 responses in mouse primary sensory neurons; assay: Calcium-imaging-based TRPV1 sensitization assay; type: cell-based
[6] = molecular target: GPR1 (Homo sapiens, UniProt P46091); type: cell-based; conditions: 60 μM, no endogenous ligand applied
[7] = molecular target: T1, human G2A (Homo sapiens, UniProt Q9UNW8); conditions: ratio of EC50 values
T1 sequence (Q9UNW8 1-380): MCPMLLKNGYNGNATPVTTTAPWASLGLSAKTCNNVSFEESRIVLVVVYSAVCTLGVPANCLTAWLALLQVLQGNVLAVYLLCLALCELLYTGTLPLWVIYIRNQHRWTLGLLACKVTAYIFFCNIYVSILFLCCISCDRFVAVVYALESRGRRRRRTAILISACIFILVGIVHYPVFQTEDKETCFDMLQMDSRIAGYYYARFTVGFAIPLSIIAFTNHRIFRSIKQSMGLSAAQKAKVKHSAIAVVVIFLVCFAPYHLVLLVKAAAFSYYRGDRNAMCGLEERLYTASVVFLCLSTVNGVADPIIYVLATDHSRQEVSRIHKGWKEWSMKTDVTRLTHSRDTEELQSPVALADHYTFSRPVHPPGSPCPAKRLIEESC

[8] = Aqueous solubility; conditions: PBS with 1% DMSO, pH 7.4, aqueous solubility, PBS buffer
[9] = Pharmacokinetics in male C57Bl/6N mice
[10] = Metabolic stability in rat liver microsomes; conditions: Sprague–Dawley rat liver microsomes
[11] = test system: Molm-13; assay: Cell viability; type: cell-based; conditions: 30 μM, 72 h
[12] = test system: ML-2; assay: Cell viability; type: cell-based; conditions: 30 μM, 72 h
[13] = test system: Molm-13; assay: Apoptosis assay AnnexinV/7-AAD; type: cell-based; conditions: 30 μM, 24 h
[14] = test system: ML-2; assay: Apoptosis assay AnnexinV/7-AAD; type: cell-based; conditions: 30 μM, 24 h
[15] = test system: G2A; conditions: weak antagonist of G2A; cited from earlier work

Sequence of GPR1 (P46091 whole entry): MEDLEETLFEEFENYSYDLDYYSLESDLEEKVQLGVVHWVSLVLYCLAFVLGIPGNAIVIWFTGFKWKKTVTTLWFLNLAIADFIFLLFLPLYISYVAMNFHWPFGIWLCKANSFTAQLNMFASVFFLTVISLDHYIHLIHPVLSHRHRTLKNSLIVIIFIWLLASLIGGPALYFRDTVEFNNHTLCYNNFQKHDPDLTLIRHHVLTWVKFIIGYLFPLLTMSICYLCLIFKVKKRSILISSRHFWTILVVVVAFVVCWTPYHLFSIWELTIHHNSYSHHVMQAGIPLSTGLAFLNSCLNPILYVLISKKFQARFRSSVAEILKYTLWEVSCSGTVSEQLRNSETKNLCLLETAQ
Sequence of GPR1 (P32121 whole entry partner): as the sequence (P32121 whole entry partner, one chain of several) above

CCCCC/C=C\C=C\[C@H](O)CCCCCCCC(=O)O [9(R)-HODE]
βarr2 recruitment response [1]: did not result in any observable NanoLuc complementation

CCCCC/C=C\C=C\C(O)CCCCCCCC(=O)O (centres unmarked) [9-HODE]
activation of the Gq pathway (IP-1) [2]: could not detect any activation of the Gq pathway | activation of the Gq pathway (IP-1) [3]: could not detect any activation of the Gq pathway | increase in IP-1 not mediated by the receptor [4]: not been observed | βarr2 recruitment response [1]: unable to stimulate the same degree of β-arrestin recruitment

O=C(NC(Cc1ccccc1)C(=O)O)c1cccc(OCc2cccnc2)c1 (centres unmarked) [Compound 1]
sensitization of capsaicin-induced TRPV1 responses ([5]; 1 μM compound, 2 min, capsaicin 100 nM 30 s): potently sensitize for capsaicin-induced TRPV1 responses; also recorded: comparable to that observed with 200 nM (±)9-HODE

O=C(N[C@H](Cc1ccccc1)C(=O)O)c1cccc(OCc2cccnc2)c1 [Compound 3, (R)-3-Phenyl-2-(3-(pyridin-3-ylmethoxy)benzamido)propanoic Acid]
partial agonism, share of maximal βarr2 recruitment observed with C9 [6]: approximately 50% | activation of the Gq pathway (IP-1) [2]: could not detect any activation of the Gq pathway | activation of the Gq pathway (IP-1) [3]: could not detect any activation of the Gq pathway | times more active than the (S) distomer 2 [7]: more than 30 times | solubility [8]: > 3000 µM | CL ([9]; 10 mg/kg sc): 140.8 mL/min/kg | behavior and clinical signs after dosing ([9]; iv or sc in PBS): no clinical signs observed | rat liver microsomes (remaining after 60 min) [10]: 98% ^c

COc1ccc(-c2cc(C(=O)N[C@@H](Cc3ccccc3)C(=O)NC3CCCCC3)ccc2O)cc1 [Compound 56, (S)-N-(1-(Cyclohexylamino)-1-oxo-3-phenylpropan-2-yl)-6-hydroxy-4′-methoxy-[1,1′-biphenyl]-3-carboxamide]
effect on TRPV1 sensitization by T-10418 (100 nM) and 9-HODE (400 nM) ([5]; cotreatment with 10 μM antagonist): completely abolished

Cc1ccccc1CN1C(=O)C2=C(CCN(Cc3ccccc3)C2)N2CCN=C12 [ONC201]
viable cells [11]: strong reduction in viable | viable cells [12]: strong reduction in viable | induction of apoptosis [13]: induction of apoptosis could be confirmed | induction of apoptosis [14]: induction of apoptosis could be confirmed

O=C1C2=C(CCN(Cc3ccccc3)C2)N2CCN=C2N1Cc1ccc(C(F)(F)F)cc1 [ONC212]
activation of the Gq pathway (IP-1) [2]: could not detect any activation of the Gq pathway | activation of the Gq pathway (IP-1) [3]: could not detect any activation of the Gq pathway | increase in IP-1 not mediated by the receptor [4]: substantial increase in IP-1

lysophosphatidylcholine [LPC]
pIC50 [15]: < 5.00
